From patent US20240327320A1, “NOVEL ROUTES OF CHEMICAL SYNTHESIS OF 20S(OH)D3, 20S,25(OH)2D3, 20S,23S(OH)2D3, AND 20S,23R(OH)2D3 AND THEIR MODIFICATION OF THE IMMUNE ACTIVITY OF PBMCS” (United State Government as represen ted by the Department …, priority 2023, published 2024)

Tests used:
[1] = system: Human epidermal keratinocytes (HEKn); assay: Protein expression, immunofluorescence; assay type: cell-based; settings: 48 h, FIG. 7C
Experimental: HEKn were cultured until the third passage before treatment. Keratinocytes were plated in a 96-well plate and at 80% confluence, 10^-7 M secosteroids (or 0.1% ethanol control) were added and cells were incubated for 48 h. Cells were fixed and stained with anti-involucrin (1:20, GTX-14504; Genetex, Irvine, CA, USA) anti-CK10 (1:300, Santa Cruz Biotechnology), anti-catalase (1:200, Santa Cruz Biotechnology) or anti-CK14 antibody with Alexa Fluor® 488 (1:500, Santa Cruz Biotechnology) and imaged at 10× magnification in Cytation 5 reader as described before (Chaiprasongsuk A, et. al., (2020) Free Radic Biol Med 155 87-9845; Slominski A T, et. al., (2017) Sci Rep 7(1) 11434; Chaiprasongsuk A, et. al., (2020) Int J Mol Sci 21(24)). Nuclei were stained with blue DAPI. Fluorescence intensity was measured using the Cytation 5 reader and ImageJ, and data were analyzed using Graph Pad Prizm.
FIG. 7C and FIG. 7D represent protein expression studies. Values are presented as percentage of fluorescence positive cells (FIG. 7C) or as mean fluorescence per cell (% of all cells (FIG. 7D). The values in FIG. 7D were calculated as mean green fluorescence vs DAPI blue fluorescence measured in ImageJ. Data are means±SD (n=3) and were analyzed using Student's t-test with p<0.05 (*), p<0.01 (**) or p<0.001 (***).

[2] = system: CD4 and CD8 T cells from human peripheral blood; assay: T cell activation in PBMC, flow cytometry with TriMAP/FlowSOM; assay type: cell-based; settings: 10^-7 M, 24 h, anti-CD3 and anti-CD28, compared to ethanol treated cells
Experimental: Human peripheral blood mononuclear cells (PBMC) from two healthy individuals were obtained from a pre-existing respository. Their use was approved by the University of Alabama at Birmingham Institutional Review Board (Human Subject Assurance Number FWA00005960) as an exempt protocol #4 (Dr C. Raman, P.I.). […] Informed consent is waived in accord with 45CFR46.116 (d). In 48 well plates, 0.5×10^6 PBMC/well were cultured in RPMI1640 containing, 5% charcoal adsorbed FBS and antibiotics and T cells were activated using […] anti-CD3 (clone 145-2C11) and 1 μg/ml anti-CD28 (clone 37.51) for 24 h (Janjetovic Z, et. al., (2021) Endocrinology 162(1), Chaiprasongsuk A, et. al., (2020) Free Radic Biol Med 155 87-98, Slominski A T, et. al., (2011) Am J Physiol Cell Physiol 300(3) C526-41, McGuire D J, et. al., (2014) Eur J Immunol 44(4) 1137-42, Sestero C M, et. al., (2012) J Immunol 189(6) 2918-30). The culture was treated with 10^-7 M 20S(OH)D3, 20S,25(OH)2D3, 20S,23S(OH)2D3, 20S,23R(OH)2D3 or 1α,25(OH)2D3 (Sigma-Aldrich, St. Louis, MO, USA) dissolved in ethanol and diluted in culture medium at the same time of addition of anti-CD3 and anti-CD28. The vehicle control comprised of 0.1% ethanol. At the end of assay the cells were stained with antibodies to CD4 (clone RPA-T4, BV-421), CD19 (clone HB19, BV-510), CD14 (clone HCD14, Alexa 700), CD137 (clone 4B4-1, BV605), CD8a (clone RPA-T8, FITC), ICOS (clone C398.4A, PE/Dazzle), PD1 (clone NAT105, PE), CD80 (clone 2D10, PerCP/Cy5.5), OX40 (clone ACT35, PE/Cy7), CD69 (clone FN50, APC), HLA-DR (clone L243, APC/Fire 750). All antibodies were from Biolegend except anti-CD8 was from Thermo Fisher. The stained cells were analyzed using a CytoFLEX (Beckman Coulter) flow cytometer.
For unbiased analysis of the multidimensional data, acomputational algorithm-based approaches was utilized (Quintelier K, et. al., (2021) Nature Protocols 16(8) 3775-3801). The flow cytometry standard (FCS) data files from each individual and treatment (two individuals, six treatments including ethanol, a total of 12 data files) were processed through the following workflow—compensation, gating on live cells, gating for single cells and subtraction of CD19+(B cells) and CD14+(monocytes). B cells and monocytes were removed from the analysis because only T cells (CD4+ and CD8+) are activated by anti-CD3 and anti-CD28. After these initial gating steps, a key word was added to each of the 12 FCS files, down sampled to 50,000 events/sample and concatenated. Down sampling ascertains that each sample is equally weighted, and concatenation ascertains that statistical analysis is applied equally. The concatenated files were first subjected to TriMAP analysis, a computational algorithm that clusters populations based on triplet relatedness followed by FlowSOM algorithm-based clustering (Quintelier K, et. al., (2021) Nature Protocols 16(8) 3775-3801). To perform these analyses, plugins within FlowJo (BD, CA, USA) were used.
T cells in peripheral blood from two healthy individuals were activated with anti-CD3 and anti-CD28 in the absence (ethanol) or presence of 10^−7 M of each of the vitamin D3 secosteroids for 24 h. The cells were stained for lineage markers (CD4, CD8, CD19, CD14) and a panel of activation induced markers (CD69, ICOS, OX40, CD137, PD1, HLADR) and expression data were collected using a flow cytometer. The gating strategy was live, single cell followed by CD4 and CD8 T cell populations. […]

SMILES | protein levels of involucrin, CK10, CK14, and catalase [1] | CD4 T cells of population 4 (down modulated CD4, increased CD69 and ICOS) [2]
C=C1CC[C@H](O)C/C1=C/C=C1\CCC[C@@]2(C)[C@H]1CC[C@@H]2[C@@](C)(O)CCCC(C)C [20S(OH)D3, (20S)-20-Hydroxyvitamin D3] | increasing the levels of involucrin, CK10, CK14, and catalase | increased the proportion of cells with population 4 phenotype
C=C1CC[C@H](O)C/C1=C/C=C1\CCC[C@@]2(C)[C@H]1CC[C@@H]2[C@@](C)(O)CCCC(C)(C)O [20S,25(OH)2D3, (20S)-20,25-Dihydroxyvitamin D3] | increasing the levels of involucrin, CK10, CK14, and catalase | fewer cells
C=C1CC[C@H](O)C/C1=C/C=C1\CCC[C@@]2(C)[C@H]1CC[C@@H]2[C@@](C)(O)C[C@@H](O)CC(C)C [20S,23S(OH)2D3, (20S,23S)-20,23-Dihydroxyvitamin D3] | increasing the levels of involucrin, CK10, CK14, and catalase | fewer cells
C=C1CC[C@H](O)C/C1=C/C=C1\CCC[C@@]2(C)[C@H]1CC[C@@H]2[C@@](C)(O)C[C@H](O)CC(C)C [20S,23R(OH)2D3, (20S,23R)-20,23-Dihydroxyvitamin D3] | increasing the levels of involucrin, CK10, CK14, and catalase | –
